Measured values taken from PubChem BioAssay (NCI).
“And” between values parts separate entries of the source, which are not always exact repeats. Identical values can stand only once.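 Protocol summary: plate cells (96-well), add compound at 5 concentrations, incubate 48 h, interpolate endpoints linearly. GI50 = concentration required for 50% inhibition of growth. TGI: concentration producing complete growth inhibition.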

Assays:
Assay in all cases: DTP human tumour cell line panel, 48 h
OVCAR-3 ovarian = system: OVCAR-3 ovarian
MCF7 breast = system: MCF7 breast
U251 CNS = system: U251 CNS
NCI-H460 lung = system: NCI-H460 lung
UACC-257 melanoma = system: UACC-257 melanoma
SK-MEL-2 melanoma = system: SK-MEL-2 melanoma
MALME-3M melanoma = system: MALME-3M melanoma
IGROV1 ovarian = system: IGROV1 ovarian
SK-MEL-5 melanoma = system: SK-MEL-5 melanoma
OVCAR-8 ovarian = system: OVCAR-8 ovarian

| SMILES | GI50 (OVCAR-3 ovarian) | TGI (OVCAR-3 ovarian) | GI50 (MCF7 breast) [µM] | TGI (MCF7 breast) [µM] | GI50 (U251 CNS) | TGI (U251 CNS) [µM] | GI50 (NCI-H460 lung) | TGI (NCI-H460 lung) | GI50 (UACC-257 melanoma) [µM] | TGI (UACC-257 melanoma) [µM] | GI50 (SK-MEL-2 melanoma) | TGI (SK-MEL-2 melanoma) | GI50 (MALME-3M melanoma) | TGI (MALME-3M melanoma) | GI50 (IGROV1 ovarian) | TGI (IGROV1 ovarian) [µM] | GI50 (SK-MEL-5 melanoma) | TGI (SK-MEL-5 melanoma) | GI50 (OVCAR-8 ovarian) | TGI (OVCAR-8 ovarian) [µM] |
| --- | --- | --- | --- | --- | --- | --- | --- | --- | --- | --- | --- | --- | --- | --- | --- | --- | --- | --- | --- | --- |
| Nc1nccc(-c2c(-c3ccc(F)cc3)nn3cc(C(F)(F)F)ccc23)n1 | > 25 µM | > 25 µM | > 25 | > 25 | > 25 µM | > 25 | > 25 µM | > 25 µM | > 25 | > 25 | > 25 µM | > 25 µM | > 25 µM | > 25 µM | > 25 µM | > 25 | > 25 µM | > 25 µM | > 25 µM | > 25 |
| CN1CCN(c2c(F)cc(NC3=C(Cl)C(=O)c4ncccc4C3=O)cc2F)CC1 | 0.303 µM | 1.37 µM | 2.04 | 5.35 | 15 µM | 31.7 | 18.1 µM | 36 µM | 1.68 | 3.39 | 13.7 µM | 28 µM | 1.59 µM | 2.97 µM | 2.92 µM | 11.5 | 15.2 µM | 28.8 µM | 8.82 µM | > 100 |
| COC12C(COC(=O)NCCO)C3=C(C(=O)C(C)=C(N)C3=O)N1CC1NC12 (stereo not drawn) | 56.2 µM | 141 µM |  | 118 | 45.4 µM |  |  | 30.7 µM and 49.4 µM | 79.1 | 238 |  | 79.9 µM and 75.5 µM | 45.3 µM | 64 µM and 101 µM | 39.8 µM | 116 | 23.9 µM | 45 µM and 58.2 µM | 55 µM | > 264 |
| COc1ccc(C(O)c2cc3c(N)c(C(=O)Nc4cccc5ccccc45)sc3nc2C)cc1 (stereo not drawn) | 2.53 µM | 7.5 µM | 0.324 | > 90.9 | 0.372 µM | > 42.5 | 0.332 µM | 5.93 µM |  | > 32.5 | 0.811 µM | > 43.2 µM | 0.544 µM | > 60.8 µM | 0.574 µM | > 100 | 0.327 µM | 1.25 µM | 0.373 µM | > 100 |
| C#Cc1ccc(-n2c(/C=C/c3ccc(O)cc3)nc3ncccc3c2=O)cc1 | 2.41 µM | 5.69 µM | 3.04 | > 100 | 4.02 µM | > 100 | 3.33 µM | 14.1 µM | 6.3 | > 100 | 3.95 µM | 40.7 µM | 5.13 µM | > 100 µM | 4.69 µM | 35.4 | 2.24 µM | 7.45 µM | 4.39 µM | 47 |
| O=NN(CCCl)C(=O)NC1CCC(CC(=O)O)CC1 (stereo not drawn) |  | > 100 µM |  | > 100 |  | > 100 |  | > 100 µM |  | > 100 |  | > 100 µM |  | > 100 µM |  | > 100 |  | > 100 µM |  | > 100 |
| Nc1nc(=S)c2ncn(C3OC(COP(=O)(O)O)C(O)C3O)c2[nH]1 (stereo not drawn) | 3.2 µM | > 100 µM | 0.397 | > 100 | 8.08 µM | > 100 | 0.562 µM | 10.9 µM | 4.57 | > 100 | 3.89 µM | > 100 µM | 1.81 µM | 75 µM | 5.23 µM | > 100 | 3.25 µM | 11.7 µM | 0.715 µM | > 100 |
| CC(=O)NC1C(O[C@H]2C[C@H]3[C@@H]4CC=C5C[C@@H](O)CC[C@]5(C)[C@H]4CC[C@]3(C)[C@H]2[C@H](C)C(=O)CCC(C)C)OCC(O)C1O (stereo partly drawn) | 5.2 µM | 34 µM | 2.44 | 10.4 | 2.34 µM | 11.5 | 1.71 µM | 6.1 µM | 1.4 | 3.55 | 1.35 µM | 4.11 µM | 2.33 µM | 9.78 µM | 3.37 µM | > 42.5 | 1.85 µM | 6.49 µM | 15.7 µM | > 42.5 |
| COc1ccc(-c2[nH]c3ccc(OC)cc3c2C=C(C#N)C#N)cc1 | 0.364 µM | 1.9 µM | 0.382 | > 100 | 0.607 µM | > 100 | 0.463 µM | > 100 µM | > 100 | > 100 | 5.85 µM | > 100 µM | > 100 µM | > 100 µM | > 24 µM | > 100 | 0.321 µM | > 100 µM | > 100 µM | > 100 |
| CCCCCCCCCCCCCCNC(=O)Nc1ccc(Cl)c(Cl)c1 | 2.47 µM | 6.31 µM | 2.86 | > 36.1 | 3.15 µM | > 100 | 3.4 µM | > 100 µM | 2.78 | 11.3 | 1.93 µM | 5.69 µM | 1.39 µM | 4.59 µM | 1.33 µM |  | 1.68 µM | 3.23 µM | 3.16 µM | > 31.4 |
| Fc1ccc(NC(c2ccc(F)cc2)C2CCN(CCCCc3ccccc3)CC2)cc1 (stereo not drawn) | 1.57 µM | 2.91 µM | 1.64 | 3.24 | 1.67 µM | 3.06 | 1.71 µM | 3.09 µM | 1.97 | 3.79 | 1.81 µM | 3.54 µM | 1.4 µM | 2.88 µM | 2.18 µM | 5.17 | 1.63 µM | 3.1 µM | 2.05 µM | 4.19 |
| CCO/C=C1\SC(=S)N(c2ccc(OCC)cc2)C1=O |  | > 100 µM |  | > 100 |  | > 100 |  | > 100 µM |  | > 100 |  | > 100 µM |  | > 100 µM |  | > 100 |  | > 100 µM |  | > 100 |
| [O]=[V]([OH])([OH])[OH] | > 100 µM | > 100 µM | > 100 | > 100 | > 100 µM | > 100 | > 100 µM | > 100 µM | > 100 | > 100 | > 100 µM | > 100 µM | > 100 µM | > 100 µM | > 100 µM | > 100 | > 100 µM | > 100 µM | > 100 µM | > 100 |
| S=C1SCN(Cc2ccccc2)CN1Cc1ccco1 | 3.98 µM | 15 µM | 1.78 | 16.1 | 21.3 µM | 68.3 | 5.25 µM | 22.3 µM | 6.28 | 20.7 | 3.04 µM | 11.9 µM | 8.44 µM | 23.5 µM | 8.47 µM | 26.4 | 11.7 µM | 26.9 µM | 5.71 µM | 32 |
| O=C(COc1ccc(/C=C2\Oc3ccccc3C2=O)cc1)Nc1nc2ccccc2s1 | 1.9 µM | 4.78 µM | 35.6 | > 100 | 6.35 µM | > 100 | 43.8 µM | > 100 µM | 8.24 | 45.2 | 14.6 µM | > 68.6 µM | 3.94 µM | > 100 µM |  |  | 29.7 µM | > 100 µM | 0.321 µM | > 100 |
| COc1ccccc1Oc1nccc(-c2c(-c3ccc(F)cc3)ncn2C2CCNCC2)n1 | > 25 µM | > 25 µM | 16 | > 25 | > 24 µM | > 25 | > 25 µM | > 25 µM |  |  | > 25 µM | > 25 µM | > 25 µM | > 25 µM | > 22.6 µM | > 25 | 7.2 µM | > 25 µM | > 25 µM | > 25 |
| COc1cc(/C=C/c2cc(/C=C/c3ccc(O)c(OC)c3)n(C(=O)c3ccccc3Br)n2)ccc1O |  |  | 3 | 13 | 2.62 µM | > 100 | 2.99 µM | > 100 µM | 3.36 | 40.1 | 2.37 µM | 5.92 µM | 3.27 µM | 43.6 µM | 4.11 µM | > 100 | 2.56 µM | 13.3 µM | 2.75 µM | 12.4 |
| CC[C@H](C)[C@H](NC(=O)[C@H]1CCCCN1C)C(=O)N(C)[C@H](C[C@@H](OC(C)=O)c1nc(C(=O)NC23CC(C(=O)OC)(C2)C3)cs1)C(C)C | 0.000256 µM and < 0.00325 µM | 0.0158 µM and < 0.00325 µM |  | > 32.5 | 0.00083 µM and 0.00325 µM | > 32.5 | 0.0007 µM and 0.00325 µM | > 32.5 µM |  |  | 0.00102 µM and 0.00325 µM | 0.0347 µM | 0.00756 µM and 0.0305 µM | > 32.5 µM | 0.00132 µM and 0.00325 µM | > 32.5 | 0.000748 µM and 0.00325 µM | 0.0299 µM and 0.0384 µM | 0.00056 µM and 0.00325 µM | > 32.5 |
| CCc1ccc(Nc2cc(C)c3ccc(O)cc3n2)cc1 | 11.7 µM | 27.8 µM | 4.75 | 22.4 | 6.84 µM | 22.5 | 4.92 µM | 22 µM |  |  | 9.97 µM | 23.6 µM | 6.19 µM | 19 µM | 6.14 µM | 20.8 | 4.08 µM | 14.3 µM | 10.8 µM | 35.3 |
